Like-named read-outs stand apart in the source and are kept apart here.
Tests used:
Assay type in all cases: biochemical
[1] = test system: nitrile hydratase of Rhodococcus sp. Cr4; details: for effect on enzyme activity (words): inhibitors
Description: (§1) The standard assay method for the nitrile hydratase activity used in the following Examples as follows. The enzyme reaction is initiated by adding 3-cyanopyridine or 2-hydroxy-4-methylthiobutyronitrile (HMBN) as the substrate compound. In the case of 3-cyanopyridine, incubation was continued at 20° C. for 10 minute, in the case of HMBN, at 20° C. for 15 minutes. When 3-cyanopyridine was used in the reaction, 0.1 ml of 2 N hydrochloric acid was added to the reaction and the mixture was shaken vigorously to stop the reaction; when HMBN was used in the reaction, 0.1 ml of the reaction solution was added to 0.9 ml of 0.1% (v/v) phosphoric acid and the mixture was shaken vigorously to stop the reaction. The reaction solution was analyzed by HPLC.
• 10% (v/v) HMBN was added to initiate the reaction. • The mixture was incubated with shaking at 20° C. for 10 minutes. • 0.1% (v/v) H3PO4 was added to stop the reaction. • Centrifugation. • HPLC analysis.
Inhibitors to the enzyme were studied. With the standard composition of reaction solution shown in Table 1, various inhibitors were added at a final concentration 1.0 mM or 0.1 mM to the solutions containing 2.92 U enzyme; after the mixtures were incubated at 20° C. for 10 minutes, the reaction was carried out for 15 minutes.

[2] = test system: nitrile hydratase of Rhodococcus sp. Cr4; assay: Substrate specificity of the purified nitrile hydratase (amide formation by HPLC); details: for substrate suitability: purified nitrile hydratase
Description: as §1
• 0.3 M 3-cyanopyridine was added to initiate the reaction. • The mixture was incubated with shaking at 20° C. for […]. • 2 N HCl was added to stop the reaction. • Centrifugation. • HPLC analysis.
The substrate specificity of the enzymewas examined. With the standard composition reaction solution shown in table 2, 2.92 U enzyme was incubated with various types of substrates, instead of 3-cyanopyridine; the generation of amides in the reaction solution was analyzed by HPLC. Thus, the relative activity was determined. The types of substrate compounds added, final concentrations thereof, reaction times, and HPLC conditions used for the analyses of products corresponding to the respective substrates are shown in Table 6. The HPLC conditions (1)-(9) are indicated next to Table 6.
The conditions for HPLC were as follows: • (1) Column: Waters Spherisorb 5 μODS2 (4.6×150 mm); • Solvent: 10 mM KH2PO4(pH 2.8)/acetonitrile (v/v)=9:1; • Flow rate: 1.0 ml/min; • Detection: 230 nm; • Injection volume: 5 μl. • (2) Column: Waters Spherisorb 5 μODS2 (4.6×150 mm); • Solvent: 10 mM KH2PO4(pH 2.8)/acetonitrile (v/v)=9:1; • Flow rate: 1.0 ml/min; • Detection: 230 nm; • Injection volume:5 μl. • (3) Column: Waters Spherisorb 5 μODS2 (4.6×150 mm); • Solvent: 5 mM KH2PO4 (pH 2.8)/acetonitrile (v/v)=12:7; • Flow rate: 1.0 ml/min; • Detection: 230 nm; • Injection volume: 5 μl. • (4) Column: Waters Spherisorb 5 μODS2 (4.6×150 mm); • Solvent: 10 mM KH2PO4(pH 2.5)/acetonitrile (v/v)=99:1; • Flow rate: 1.0 ml/min; • Detection: 210 nm; • Injection volume: 5 μl. • (5) Column: Waters Spherisorb 5 μODS2 (4.6×150 mm); • Solvent: 10 mM KH2PO4(pH 2.5)/acetonitrile (v/v)=99:1; • Flow rate: 1.0 ml/min; • Detection: 230 nm; • Injection volume: 5 μl. • (6) Column: Spherisorb S5ODS2 (4.6×150 mm) • Solvent: 0.1% (v/v) phosphate/acetonitrile (v/v)=99:1; • Flow rate: 1.0 ml/min; • Detection: 210 nm; • Injection volume: 5 μl. • (7) Column: Spherisorb S5ODS2 (4.6×150 mm); • Solvent: 0.1% (v/v) phosphate/acetonitrile (v/v)=9:1; • Flow rate: 1.0 ml/min; • Detection: 210 nm; • Injection volume: 5 μl; • Temperature: 40° C. • (8) Column: Spherisorb S5ODS2 (4.6×150 mm); • Solvent: 0.1%(v/v) phosphate/acetonitrile (v/v)=9:1; • Flow rate: 1.0 ml/min; • Detection: 230 nm; • Injection volume: 5 μl • Temperature: 40° C. • (9) Column: Spherisorb S5ODS2 (4.6×150 mm); • Solvent: 5 mM KH2PO4 (pH 2.8)/acetonitrile (v/v)=12:7; • Flow rate: 1.0 ml/min; • Detection: 210 nm; • Injection volume: 5 μl; • Temperature: 40° C. 13. The Effect of Inhibitors on the Enzymatic Activity

[3] = test system: nitrile hydratase of Rhodococcus sp. Cr4; assay: Effect of coexisting Ni++ ion with various substrates
Description: Then, with the standard composition of reaction solution shown in table 2, various types of substrates, instead of 3-cyanopyridine, were added to the solutions containing 2.92 U enzyme to study their effects on the activity. […] The addition of Ni^++ ion was assumed to specifically enhance the reaction efficiency when the substrate was a α-hydroxynitrile (Table 11).
The incubation was prolonged for 10 minutes at 20° C. using 2.92 U enzyme. 17. Determination of N-Terminal Amino Acid Sequence

[4] = test system: nitrile hydratase of Rhodococcus sp. Cr4
[5] = compound 1.0 mM, Free = 100, HMBN substrate, 20° C.
[6] = compound used as substrate, activity for 3-cyanopyridine = 100%, 20° C., 2.92 U enzyme
[7] = compound used as substrate, methanol added (final conc. 20% v/v), 20° C., 2.92 U enzyme

**Q.** O[C@H](CS)[C@H](O)CS (racemic) [Dithiothreitol] was tested. Which “Relative activity (%)” value [1, 5] did it give?
**A.** 93.4%

**Q.** Which “Relative activity (%)” value [2, 6] does the source give for N#CCC(N)=O [2-Cyanoacetamide] here?
**A.** 46.3%

**Q.** N#Cc1ccccn1 [2-Cyanopyridine] was tested. Which “Relative activity (%)” value [2, 6] did it give?
**A.** 223%

**Q.** And the “substrate suitability” value [2]?
**A.** suitable substrates

**Q.** What about the “activity, Free” value [3] of the same compound?
**A.** 100

**Q.** What about the “activity, NiCl2 (1 mM)” value [3] of the same compound?
**A.** 97

**Q.** For N#CCc1c[nH]c2ccccc12 [3-Indolylacetonitrile], which “Relative activity (%)” value [2, 7] is on record?
**A.** 2.33%

**Q.** What does the source list for N#CCCN [3-aminopropyonitlile]?
**A.** activity, Free [3]: 100; activity, NiCl2 (1 mM) [3]: 97

**Q.** With N#Cc1ccncc1 [4-Cyanopyridine] as the compound, how does the “Relative activity (%)” value [2, 6] read?
**A.** 127%

**Q.** What about the “activity, Free” value [3] of the same compound?
**A.** 100

**Q.** What about the “activity, NiCl2 (1 mM)” value [3] of the same compound?
**A.** 99

**Q.** With O=C(O)c1cc(SSc2ccc([N+](=O)[O-])c(C(=O)O)c2)ccc1[N+](=O)[O-] [5-5′-Dithiobis] as the compound, how does the “Relative activity (%)” value [1] read?
**A.** 99.1%

**Q.** With CC#N [Acetonitrile] as the compound, how does the “Relative activity (%)” value [2] read?
**A.** 14.6%

**Q.** How did the “Relative activity (%)” value [2, 6] turn out when C=CC#N [Acrylonitrile] was run?
**A.** 114%

**Q.** What does the source list for O=[N+]([O-])[O-].[Ag+] [AgNO3]?
**A.** Relative activity (%) [4]: 7.85%; effect on enzyme activity (words) [4]: markedly inhibited

**Q.** With N#CCN [Aminoacetonitlile] as the compound, how does the “activity, Free” value [3] read?
**A.** 0

**Q.** And the “activity, NiCl2 (1 mM)” value [3]?
**A.** 0

**Q.** For N#Cc1ccccc1 [Benzonitrile], which “Relative activity (%)” value [2] is on record?
**A.** 138%

**Q.** How did the “Relative activity (%)” value [4] turn out when [Ca+2].[Cl-].[Cl-] [CaCl2] was run?
**A.** 96.4%

**Q.** Which “Relative activity (%)” value [2, 6] does the source give for CC=CC#N [Crotononitrile] here?
**A.** 87.4%

**Q.** What about the “activity, Free” value [3] of the same compound?
**A.** 100

**Q.** And the “activity, NiCl2 (1 mM)” value [3]?
**A.** 103

**Q.** Which “Relative activity (%)” value [4] does the source give for O=S(=O)([O-])[O-].[Cu+2] [CuSO4] here?
**A.** 109%

**Q.** For N#Cc1cnccn1 [Cyanopyrazine], which “Relative activity (%)” value [2, 6] is on record?
**A.** 114%

**Q.** With NCCS [Cysteamine] as the compound, how does the “Relative activity (%)” value [1] read?
**A.** 106%

**Q.** With N[C@@H]1CONC1=O [D-Cycloserine] as the compound, how does the “Relative activity (%)” value [1, 5] read?
**A.** 94.8%

**Q.** With O=C(O)CN(CCN(CC(=O)O)CC(=O)O)CC(=O)O [EDTA] as the compound, how does the “Relative activity (%)” value [1] read?
**A.** 101%

**Q.** With N#CCCO [Etylene cyanohydrin] as the compound, how does the “activity, Free” value [3] read?
**A.** 100

**Q.** What about the “activity, NiCl2 (1 mM)” value [3] of the same compound?
**A.** 91

**Q.** With [Cl][Fe]([Cl])[Cl] [FeCl3] as the compound, how does the “Relative activity (%)” value [4] read?
**A.** 100%

**Q.** O=S(=O)([O-])[O-].[Fe+2] [FeSO4] was tested. Which “Relative activity (%)” value [4] did it give?
**A.** 78.9%

**Q.** Which results are given for [Cl][Hg][Cl] [HgCl2]?
**A.** Relative activity (%) ([4]; metal 1.0 mM, Free = 100, incubated 20° C. 10 minutes): 7.48%; effect on enzyme activity (words) ([4]; metal ions): inhibited; effect on enzyme activity (words) ([4]; metal ions, listed as Hg^++): markedly inhibited

**Q.** With N#CCO [Hydroxyacetonitlile] as the compound, how does the “activity, Free” value [3] read?
**A.** 0

**Q.** What about the “activity, NiCl2 (1 mM)” value [3] of the same compound?
**A.** 0

**Q.** Which “Relative activity (%)” value [1, 5] does the source give for NO [Hydroxylamine] here?
**A.** 62.1%

**Q.** What about the “effect on enzyme activity (words)” value [1] of the same compound?
**A.** markedly inhibited

**Q.** How did the “Relative activity (%)” value [1] turn out when O=C(O)CI [Iodoacetate] was run?
**A.** 97.0%

**Q.** For CC(C)C#N [Isobutyronitrile], which “Relative activity (%)” value [2, 7] is on record?
**A.** 40.9%

**Q.** With CC(C)CC#N [Isovaleronitrile] as the compound, how does the “Relative activity (%)” value [2, 7] read?
**A.** 2.71%

**Q.** With N#CCC#N [Malononitrile] as the compound, how does the “substrate suitability” value [2] read?
**A.** suitable substrates

**Q.** Which “activity, Free” value [3] does the source give for N#CC(O)c1ccccc1 (stereo not shown) [Manderonitlile] here?
**A.** 100

**Q.** And the “activity, NiCl2 (1 mM)” value [3]?
**A.** 201

**Q.** And the “effect of Ni++ on activity with this substrate” value ([3]; Ni++ added)?
**A.** enhanced twice

**Q.** With C=C(C)C#N [Methacrylonitrile] as the compound, how does the “Relative activity (%)” value [2, 6] read?
**A.** 93.7%

**Q.** [Cl][Mn][Cl] [MnCl2] was tested. Which “Relative activity (%)” value [4] did it give?
**A.** 96.7%

**Q.** For CCN1C(=O)C=CC1=O [N-Ethylmaleimide], which “Relative activity (%)” value [1, 5] is on record?
**A.** 101%

**Q.** Which “Relative activity (%)” value [1] does the source give for [N-]=[N+]=[N-].[Na+] [NaN3] here?
**A.** 98.5%

**Q.** For NNc1ccccc1 [Phenylhydrazine], which “Relative activity (%)” value [1, 5] is on record?
**A.** 8.19%

**Q.** And the “effect on enzyme activity (words)” value ([1]; listed as phenyl hydrazine)?
**A.** markedly inhibited

**Q.** And the “effect on enzyme activity (words)” value ([1]; listed as phenylhydrazine)?
**A.** inhibited

**Q.** How did the “Relative activity (%)” value [2, 6] turn out when CCC#N [Propionitrile] was run?
**A.** 173%

**Q.** How did the “Relative activity (%)” value [1, 5] turn out when O=S(=O)(O)c1cc(O)c(O)c(S(=O)(=O)O)c1 [Tiron] was run?
**A.** 132%

**Q.** NC(N)=O [Urea] was tested. Which “Relative activity (%)” value [1, 5] did it give?
**A.** 95.7%

**Q.** For O=S(=O)([O-])[O-].[Zn+2] [ZnSO4], which “Relative activity (%)” value [4] is on record?
**A.** 84.1%

**Q.** Which “Relative activity (%)” value [2] does the source give for N#Cc1cccc(Cl)c1 [m-Chlorobenzonitrile] here?
**A.** 7.18%

**Q.** Which “Relative activity (%)” value [2, 7] does the source give for CCCC#N [n-Butyronitrile] here?
**A.** 379%

**Q.** And the “substrate suitability” value [2]?
**A.** suitable substrates

**Q.** And the “activity, Free” value [3]?
**A.** 100

**Q.** And the “activity, NiCl2 (1 mM)” value [3]?
**A.** 94

**Q.** For CCCCCC#N [n-Capronitrile], which “Relative activity (%)” value [2, 7] is on record?
**A.** 18.1%

**Q.** How did the “Relative activity (%)” value [2, 7] turn out when CCCCC#N [n-Valeronitrile] was run?
**A.** 118%

**Q.** Which “Relative activity (%)” value [2, 7] does the source give for N#Cc1ccccc1Cl [o-Chlorobenzonitrile] here?
**A.** 58.6%

**Q.** How did the “Relative activity (%)” value [2] turn out when N#Cc1ccc(Cl)cc1 [p-Chlorobenzonitrile] was run?
**A.** 28.4%

**Q.** How did the “Relative activity (%)” value [1, 5] turn out when O=C(O)c1cc[c]([Hg][Cl])cc1 [p-Chloromercuribenzoate] was run?
**A.** 97.7%

**Q.** What does the source list for C/C(N)=C/C#N [β-aminochlotononitlile]?
**A.** activity, Free [3]: 0; activity, NiCl2 (1 mM) [3]: 0
